The record followed here is the supplement of paper PMC10307832.

Holding throughout (assay): relative viability (nuclei count vs DMSO), 5 days (fraction); higher = more cells survive
Compound in the assay “QS11 + Decitabine”: C1CC2=C(C1)C=C(C=C2)OC3=NC(=C4C(=N3)N(C=N4)CC5=CC=C(C=C5)C6=CC=CC=C6)N[C@@H](CC7=CC=CC=C7)CO [QS11] + Nc1ncn([C@H]2C[C@H](O)[C@@H](CO)O2)c(=O)n1 [Decitabine] (partner 2 µM)
The method in brief: (§1)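 Lung cancer cell lines were pin-tool dosed in 1536-well plates on the day after seeding, with either a lone drug or a fixed anchor-drug dose plus five library-drug doses (not always all listed) in √10 steps. Nuclei were counted on 4× images after 5 days. Relative viability is the ratio of treated-well to vehicle-well nuclei counts, with each value a median of duplicate plates.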

Compound in the assay “AZ628 + Palbociclib”: CC1=C(C=C(C=C1)NC(=O)C2=CC(=CC=C2)C(C)(C)C#N)NC3=CC4=C(C=C3)N=CN(C4=O)C [AZ628] + CC(=O)c1c(C)c2cnc(Nc3ccc(N4CCNCC4)cn3)nc2n(C2CCCC2)c1=O [Palbociclib] (partner 0.5 µM)
In a few lines: as §1

Compound in the assay “AZ628 + Alpelisib”: CC1=C(C=C(C=C1)NC(=O)C2=CC(=CC=C2)C(C)(C)C#N)NC3=CC4=C(C=C3)N=CN(C4=O)C [AZ628] + Cc1nc(NC(=O)N2CCC[C@H]2C(N)=O)sc1-c1ccnc(C(C)(C)C(F)(F)F)c1 [Alpelisib] (partner 2 µM)
The method in brief: as §1

Compound in the assay “Darinaparsin + Alpelisib”: C[As](C)SC[C@H](NC(=O)CC[C@H](N)C(=O)O)C(=O)NCC(=O)O [Darinaparsin] + Cc1nc(NC(=O)N2CCC[C@H]2C(N)=O)sc1-c1ccnc(C(C)(C)C(F)(F)F)c1 [Alpelisib] (partner 2 µM)
The method in brief: as §1

On to LCLC-97TM1, for which the relative viability worked out at 0.213 with QS11 + Decitabine (first compound 0.253 µM); 0.257 with QS11 + Decitabine (first compound 2.53 µM); 0.219 in the assay with QS11 + Decitabine (first compound 8 µM); 0.231 in the assay with AZ628 + Palbociclib (first compound 0.08 µM); 0.217 in the assay with AZ628 + Palbociclib (first compound 0.253 µM); 0.193 with AZ628 + Palbociclib (first compound 0.8 µM). Besides, the relative viability with AZ628 + Palbociclib (first compound 2.53 µM) came out at 0.182; with AZ628 + Palbociclib (first compound 8 µM), 0.113; with AZ628 + Alpelisib (first compound 0.08 µM), 0.279; in the assay with AZ628 + Alpelisib (first compound 0.253 µM) it was 0.205; in the assay with AZ628 + Alpelisib (first compound 0.8 µM), 0.195; with AZ628 + Alpelisib (first compound 2.53 µM), 0.232. The relative viability was determined as 0.118 with AZ628 + Alpelisib (first compound 8 µM); 0.244 with Darinaparsin + Alpelisib (first compound 0.08 µM); 0.237 with Darinaparsin + Alpelisib (first compound 0.8 µM); 0.19 with Darinaparsin + Alpelisib (first compound 2.53 µM); 0.26 in the assay with Darinaparsin + Alpelisib (first compound 8 µM).
